Measurements taken from patent publication US9504669B2, “Spliceostatin analogs and methods for their preparation” (PFIZER INC., priority 2012, dated 2016).

Key:
[1] = test system: MDA-MB-361-DYT2 (breast cancer) cells; assay: In vitro cell assay (MTS cell viability), MDA-MB-361-DYT2; type: cell-based; details: free compounds (natural products and synthetic analogs), cell viability 96 hours after treatment
Description: (§1) Target expressing (BT474 (breast cancer), N87 (gastric cancer), HCC1954 (breast cancer), MDA-MB-361-DYT2 (breast cancer)) or non-expressing (MDA-MB-468) cells were seeded in 96-well cell culture plates for 24 hours before treatment. Cells were treated with 3-fold serially diluted antibody-drug conjugates or free compounds (i.e., no antibody conjugated to the drug) in duplicate at 10 concentrations. Cell viability was determined by CellTiter 96® AQueous One Solution Cell Proliferation MTS Assay (Promega, Madison Wis.) 96 hours after treatment. Relative cell viability was determined as percentage of untreated control. IC50 values were calculated using a four parameter logistic model #203 with XLfit v4.2 (IDBS, Guildford, Surry, UK). The potency ranged upward from 0.0002 nm. Similar procedures and techniques were employed.

[2] = test system: N87 (gastric cancer) cells; assay: In vitro cell assay (MTS cell viability), N87; type: cell-based; details: free compounds (natural products and synthetic analogs), cell viability 96 hours after treatment
Description: as §1

**Q.** What does the source list for COC(=O)C[C@@H]1C[C@@]2(CO2)[C@H](O)[C@@H](/C=C/C(C)=C/C[C@@H]2O[C@H](C)[C@H](NC(=O)/C=C\[C@H](C)OC)C[C@@H]2C)O1 [#B229, methyl [(3R,5S,7R,8R)-8-hydroxy-7-{(1E,3E)-5-[(2S,3S,5R,6R)-5-{[(2Z,4S)-4-methoxypent-2-enoyl]amino}-3,6-dimethyltetrahydro-2H-pyran-2-yl]-3-methylpenta-1,3-dien-1-yl}-1,6-dioxaspiro[2.5]oct-5-yl]acetate]?
**A.** IC50 ([1]; 96 h): 9.14 nM; IC50 ([2]; 96 h): 3.6 nM

**Q.** For CC(=O)O[C@@H](C)/C=C\C(=O)N[C@@H]1C[C@H](C)[C@H](C/C=C(C)/C=C/[C@H]2O[C@H](CC(=O)N(C)N)C[C@@]3(CO3)[C@@H]2O)O[C@@H]1C [#B144, (2S,3Z)-5-({(2R,3R,5S,6S)-6-[(2E,4E)-5-{(3R,4R,5R,7S)-4-hydroxy-7-[2-(1-methylhydrazinyl)-2-oxoethyl]-1,6-dioxaspiro[2.5]oct-5-yl}-3-methylpenta-2,4-dien-1-yl]-2,5-dimethyltetrahydro-2H-pyran-3-yl}amino)-5-oxopent-3-en-2-yl acetate], which IC50 ([1]; 96 h) is on record?
**A.** 6.1 nM

**Q.** What about the IC50 ([2]; 96 h) of the same compound?
**A.** 0.982 nM

**Q.** For CC(/C=C/[C@@H]1C[C@]2(CO2)C[C@@H](CC(N)=O)O1)=C\C[C@@H]1O[C@H](C)[C@H](NC(=O)/C=C/C(C)N)C[C@@H]1C (stereo partly drawn) [#B273, (2E)-4-amino-N-[(2R,3R,5S,6S)-6-{(2E,4E)-5-[(3S,5S,7S)-7-(2-amino-2-oxoethyl)-1,6-dioxaspiro[2.5]oct-5-yl]-3-methylpenta-2,4-dien-1-yl}-2,5-dimethyltetrahydro-2H-pyran-3-yl]pent-2-enamide], which IC50 [1] is on record?
**A.** > 1000 nM

**Q.** What about the IC50 [2] of the same compound?
**A.** 600 nM

**Q.** What does the source list for CC(=O)O[C@@H](C)/C=C\C(=O)N[C@@H]1C[C@H](C)[C@H](C/C=C(C)/C=C/[C@H]2O[C@H](CNC(N)=O)C[C@@]3(CO3)[C@@H]2O)O[C@@H]1C [#B241, (2S,3Z)-5-({(2R,3R,5S,6S)-6-[(2E,4E)-5-{(3R,4R,5R,7S)-7-[(carbamoylamino)methyl]-4-hydroxy-1,6-dioxaspiro[2.5]oct-5-yl}-3-methylpenta-2,4-dien-1-yl]-2,5-dimethyltetrahydro-2H-pyran-3-yl}amino)-5-oxopent-3-en-2-yl acetate]?
**A.** IC50 ([1]; 96 h): 43.6 nM; IC50 ([2]; 96 h): 21.3 nM

**Q.** With CC(/C=C/[C@@H]1C[C@]2(CO2)C[C@@H](CC(N)=O)O1)=C\C[C@@H]1O[C@H](C)[C@H](NC(=O)/C=C/C(C)N)C[C@@H]1C (stereo partly drawn) [#B271, (2E)-4-amino-N-[(2R,3R,5S,6S)-6-{(2E,4E)-5-[(3S,5S,7S)-7-(2-amino-2-oxoethyl)-1,6-dioxaspiro[2.5]oct-5-yl]-3-methylpenta-2,4-dien-1-yl}-2,5-dimethyltetrahydro-2H-pyran-3-yl]pent-2-enamide] as the compound, how does the IC50 [1] read?
**A.** > 100 nM

**Q.** What about the IC50 [2] of the same compound?
**A.** > 100 nM

**Q.** How did the IC50 ([1]; 96 h) turn out when CNN(C)C(=O)C[C@@H]1C[C@@]2(CO2)[C@H](O)[C@@H](/C=C/C(C)=C/C[C@@H]2O[C@H](C)[C@H](NC(=O)/C=C\[C@H](C)OC(C)=O)C[C@@H]2C)O1 [#B145, (2S,3Z)-5-({(2R,3R,5S,6S)-6-[(2E,4E)-5-{(3R,4R,5R,7S)-7-[2-(1,2-dimethylhydrazinyl)-2-oxoethyl]-4-hydroxy-1,6-dioxaspiro[2.5]oct-5-yl}-3-methylpenta-2,4-dien-1-yl]-2,5-dimethyltetrahydro-2H-pyran-3-yl}amino)-5-oxopent-3-en-2-yl acetate] was run?
**A.** 2.03 nM

**Q.** And the IC50 ([2]; 96 h)?
**A.** 0.408 nM

**Q.** Which results are given for CC(=O)O[C@@H](C)/C=C\C(=O)N[C@@H]1C[C@H](C)[C@H](C/C=C(C)/C=C/[C@H]2O[C@H](CC(=O)NCc3ccc(C(N)=O)cc3)C[C@@]3(CO3)[C@@H]2O)O[C@@H]1C [#B266, (2S,3Z)-5-{[(2R,3R,5S,6S)-6-{(2E,4E)-5-[(3R,4R,5R,7S)-7-{2-[(4-carbamoylbenzyl)amino]-2-oxoethyl}-4-hydroxy-1,6-dioxaspiro[2.5]oct-5-yl]-3-methylpenta-2,4-dien-1-yl}-2,5-dimethyltetrahydro-2H-pyran-3-yl]amino}-5-oxopent-3-en-2-yl acetate]?
**A.** IC50 ([1]; 96 h): > 100 nM; IC50 ([2]; 96 h): 28.4 nM
